The target in data set [1] is T1, Monocarboxylate transporter 1 (Homo sapiens, UniProt P53985).
T1 sequence (P53985 whole entry): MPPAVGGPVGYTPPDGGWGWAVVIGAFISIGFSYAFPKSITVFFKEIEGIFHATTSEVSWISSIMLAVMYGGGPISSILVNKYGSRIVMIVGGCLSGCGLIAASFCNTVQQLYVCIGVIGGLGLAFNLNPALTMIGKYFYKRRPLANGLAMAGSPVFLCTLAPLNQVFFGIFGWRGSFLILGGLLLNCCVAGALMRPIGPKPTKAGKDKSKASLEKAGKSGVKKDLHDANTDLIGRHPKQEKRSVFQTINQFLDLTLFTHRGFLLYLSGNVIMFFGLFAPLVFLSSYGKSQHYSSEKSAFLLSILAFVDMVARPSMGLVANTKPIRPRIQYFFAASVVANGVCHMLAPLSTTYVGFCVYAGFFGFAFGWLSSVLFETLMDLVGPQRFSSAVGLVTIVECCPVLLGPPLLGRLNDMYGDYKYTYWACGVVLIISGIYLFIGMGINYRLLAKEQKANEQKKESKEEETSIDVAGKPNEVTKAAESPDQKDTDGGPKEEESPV
Put plainly: Inhibition of MCT-1 in human A549 cells assessed as potentiation of 3-BP-mediated cytotoxicity by measuring decrease in cell viability incubated for 72 hrs in presence of 3-BP by MTT assay. It counts as cell-based.

Data set [2] concerns the target T2, Broad substrate specificity ATP-binding cassette transporter ABCG2 (Homo sapiens, UniProt Q9UNQ0).
T2 sequence (Q9UNQ0 whole entry): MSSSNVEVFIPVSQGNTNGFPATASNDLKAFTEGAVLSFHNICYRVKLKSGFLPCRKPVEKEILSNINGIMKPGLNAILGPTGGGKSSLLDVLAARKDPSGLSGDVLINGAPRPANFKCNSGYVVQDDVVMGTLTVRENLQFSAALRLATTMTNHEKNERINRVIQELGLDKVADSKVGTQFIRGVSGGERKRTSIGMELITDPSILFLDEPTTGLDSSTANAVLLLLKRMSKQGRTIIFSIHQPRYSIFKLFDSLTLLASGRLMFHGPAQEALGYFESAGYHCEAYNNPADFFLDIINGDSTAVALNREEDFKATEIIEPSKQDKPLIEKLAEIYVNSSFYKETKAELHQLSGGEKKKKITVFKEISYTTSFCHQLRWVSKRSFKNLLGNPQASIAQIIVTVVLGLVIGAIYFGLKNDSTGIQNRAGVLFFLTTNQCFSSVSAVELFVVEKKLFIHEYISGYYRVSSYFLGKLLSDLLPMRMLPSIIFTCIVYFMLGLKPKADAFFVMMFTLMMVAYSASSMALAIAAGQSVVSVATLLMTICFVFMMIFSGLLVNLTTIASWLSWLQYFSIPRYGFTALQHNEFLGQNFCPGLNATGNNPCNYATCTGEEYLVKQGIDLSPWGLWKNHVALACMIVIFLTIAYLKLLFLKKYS
Put plainly: Reversal of ABCG2 (unknown origin)-mediated multidrug resistance transfected in dog MDCK-II-BCRP cells assessed as increase in SN-38-mediated cytotoxicity incubated for 72 hrs in presence of SN-38 by MTT assay. It counts as cell-based.

A further data set deals with A549. Put plainly: Cytotoxicity against MCT1 expressing human A549 cells assessed as inhibition of cell growth incubated for 72 hrs by MTT assay. It counts as functional.
The target in data set [3] is T3, Monocarboxylate transporter 4 (Homo sapiens) (UniProt O15427).
T3 sequence (whole entry): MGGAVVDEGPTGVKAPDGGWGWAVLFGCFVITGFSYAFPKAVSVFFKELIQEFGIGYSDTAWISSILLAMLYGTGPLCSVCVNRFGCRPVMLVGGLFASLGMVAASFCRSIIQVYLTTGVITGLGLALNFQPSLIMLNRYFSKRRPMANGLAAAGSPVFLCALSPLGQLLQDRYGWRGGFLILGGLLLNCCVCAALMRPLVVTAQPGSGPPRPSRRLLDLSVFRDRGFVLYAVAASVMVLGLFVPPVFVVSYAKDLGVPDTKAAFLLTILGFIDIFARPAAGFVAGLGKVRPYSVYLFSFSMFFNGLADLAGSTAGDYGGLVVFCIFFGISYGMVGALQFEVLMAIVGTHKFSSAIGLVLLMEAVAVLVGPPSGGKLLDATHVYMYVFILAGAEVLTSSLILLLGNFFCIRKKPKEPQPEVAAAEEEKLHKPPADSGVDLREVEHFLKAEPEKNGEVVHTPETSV
Put plainly: Reversal of MCT4-mediated multidrug resistance in human MDA-MB-231 cells assessed as fold increase in doxorubicin-mediated cytotoxicity incubated for 72 hrs in presence of doxorubicin by MTT assay relative to control. It counts as cell-based.

The next data set relates to MDA-MB-231. The experiment in a line: Cytotoxicity against human MDA-MB-231 cells assessed as inhibition of cell growth by MTT assay. It counts as functional.
Another data set deals with MCF7. The experiment in a line: Cytotoxicity against MCT1 expressing human MCF7 cells assessed as inhibition of cell growth incubated for 72 hrs by MTT assay. It counts as functional.
Data set [4] deals with T2, Broad substrate specificity ATP-binding cassette transporter ABCG2. The experiment in a line: Ratio of IC50 for inhibition of ABCG2 (unknown origin) expressed in dog MDCK-II-BCRP cells using pheophorbide as tracer to EC50 for reversal of ABCG2 (unknown origin)-mediated multidrug resistance transfected in dog MDCK-II-BCRP cells in presence of SN-38. It counts as cell-based.

For data set [5] the target is unchanged. The experiment in a line: Ratio of IC50 for inhibition of ABCG2 (unknown origin) expressed in dog MDCK-II-BCRP cells using Hoechst 33342 as tracer to EC50 for reversal of ABCG2 (unknown origin)-mediated multidrug resistance transfected in dog MDCK-II-BCRP cells in presence of SN-38. It counts as cell-based.

Consider `COc1cccc(NC(=O)Cn2nc(C(=O)Nc3cccc(OC)c3)c3ccccc32)c1`, for which, in data set [1], the IC50 entry was “Not_active”. Besides, the EC50 entry in data set [2] is on record as “Not_active”.
For the molecule `O=C(Cn1nc(C(=O)Nc2ccccn2)c2ccccc21)Nc1cc(Cl)ccc1Cl`, the GI50 in the data set with A549 was 37.1 µM; in the data set with MDA-MB-231 it was 29.9 µM. In addition, the fold change (FC) in data set [3] amounted to 3.52.
For `O=C(Cn1nc(C(=O)Nc2cccnc2)c2ccccc21)Nc1ccc(Cl)cc1`, the 50% growth inhibitory concentration (GI50) in the data set on A549 came to 28.6 µM; in the data set with MCF7, 10.8 µM; with MDA-MB-231, 30 µM. The results for the “Ratio IC50/EC50” value in data set [4] and in data set [5] were above 13 and above 5, respectively. Further, the fold change (FC) in data set [3] came to 3.85.
With `COc1cccc(NC(=O)c2nn(CC(=O)Nc3ccccc3OC)c3ccccc23)c1`, the IC50 result in data set [1] was “Not_active”.

For the origin of these results see ChEMBL document CHEMBL6109064, “Functional and structural polypharmacology of indazole-based privileged ligands to tackle the undruggability of membrane transporters” (Eur J Med Chem, 2025).
